According to patent US8399465B2, “Compounds with two fused bicyclic heteroaryl moieties as modulators of leukotriene A4 hydrolase” (Janssen Pharmaceutica NV, priority 2009, dated 2013):
Structures can show the parent of a compound that is named as a salt.

Experiments:
[1] = target: T1, recombinant human LTA4 hydrolase (rhLTA4H) (Homo sapiens, UniProt P09960); assay: Recombinant human LTA4 hydrolase assay for LTA4 hydrolase inhibitor activity; assay type: biochemical; details: rhLTA4H, LTB4 by immunoassay; single determination or average of two or more; mark after value = form tested: ′ free base, ″ hydrochloride, ^ formate; read-out: IC50
T1 construct: made in house; host or cells: Spodoptera frugiperda (Sf-9) cells, baculovirus (pFastBac1)
T1 sequence (P09960 1-611): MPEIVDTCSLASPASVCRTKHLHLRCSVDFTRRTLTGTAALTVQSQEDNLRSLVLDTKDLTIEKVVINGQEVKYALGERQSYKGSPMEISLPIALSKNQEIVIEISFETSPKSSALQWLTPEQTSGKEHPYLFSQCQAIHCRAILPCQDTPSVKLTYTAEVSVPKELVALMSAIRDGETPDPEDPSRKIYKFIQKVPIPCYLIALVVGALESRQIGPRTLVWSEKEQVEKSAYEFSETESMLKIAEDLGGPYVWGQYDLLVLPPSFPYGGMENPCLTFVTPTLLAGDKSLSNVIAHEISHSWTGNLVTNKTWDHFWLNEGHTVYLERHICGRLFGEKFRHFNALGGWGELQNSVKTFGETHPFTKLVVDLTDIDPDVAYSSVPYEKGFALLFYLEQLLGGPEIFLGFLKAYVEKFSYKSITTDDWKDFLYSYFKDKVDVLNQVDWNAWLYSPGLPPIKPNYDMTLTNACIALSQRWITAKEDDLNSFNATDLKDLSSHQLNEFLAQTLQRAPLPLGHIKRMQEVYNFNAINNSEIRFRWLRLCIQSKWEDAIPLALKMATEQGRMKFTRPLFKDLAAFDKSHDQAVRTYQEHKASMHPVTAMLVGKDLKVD
Summary of the method: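 Baculovirus/Sf-9-expressed human LTA4H (10 ng) was preincubated 10 min at rt with compound in assay buffer (10% DMSO in compound dilution), then reacted 30 min at rt with LTA4 free acid made from its methyl ester. LTB4 produced was measured by ELISA after dilution; IC50 from non-linear regression, single or averaged determinations.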

[2] = test system: LTB4 production in murine blood (LTA4H); assay: LTB4 production by calcium ionophore-stimulated murine blood for LTA4H inhibitor activity; assay type: cell-based, CD-1 mice; details: Mus musculus; murine blood diluted 1 in 15, A23187 stimulated; single determination or average; mark after value = form tested: ′ free base, ″ hydrochloride, ^ formate; read-out: IC50
Procedure: Assay 2: LTB4 Production by Calcium Ionophore-Stimulated Murine Blood for LTA4H Inhibitor Activity
CD-1 mice were sacrificed, and blood was collected in heparin-containing syringes by cardiac puncture. […] After the microtiter plate contents were incubated for 15 min at 37° C. in a humidified incubator, calcium ionophore A23187 (Sigma Chemical Co., St. Louis, Mo.) was added to each sample well (final concentration=7 μg/mL). The incubation was continued under the same conditions for an additional 30 min to allow LTB4 formation. The reaction was terminated by centrifugation (833×g, 10 min at 4° C.), and supernatants were analyzed for LTB4 by a commercially available enzyme-linked immunoassay (Cayman Chemical Co.) according to the manufacturer's instructions. Positive controls, under essentially identical conditions but without addition of an inhibitor compound, and negative unstimulated controls, containing all assay components except calcium ionophore, were routinely run in each experiment. […] The values presented here are the result of a single determination or an average of two or more determinations.

Compound	IC50 [1]	IC50 [2]
Cc1ccnc2nc(Oc3ccc4c(CN5CCOCC5)c[nH]c4c3)sc12 [Example 57, 7-Methyl-2-(3-morpholin-4-ylmethyl-1H-indol-6-yloxy)-thiazolo[4,5-b]pyridine]	93 nM	444 nM
CC(=O)NC1CCN(Cc2coc3cc(Oc4nc5nccnc5s4)ccc23)CC1 [Example 253, N-{1-[6-(Thiazolo[4,5-b]pyrazin-2-yloxy)-benzofuran-3-ylmethyl]-piperidin-4-yl}-acetamide formate]	39 nM	91 nM
NC(=O)C1CCN(Cc2cc3ccc(Oc4nc5ccccc5s4)cc3[nH]2)CC1 [Example 69, 1-[6-(Benzothiazol-2-yloxy)-1H-indol-2-ylmethyl]-piperidine-4-carboxylic acid amide]	47 nM	1220 nM
c1ccc2sc(Oc3ccc4c(CN5CCCC5)c[nH]c4c3)nc2c1 [Example 1, 2-(3-Pyrrolidin-1-ylmethyl-1H-indol-6-yloxy)-benzothiazole]	12 nM	68 nM
NC(=O)C1CCN(C(=O)c2coc3cc(Oc4nc5ncccc5s4)ccc23)CC1 [Example 378, 1-[6-(Thiazolo[4,5-b]pyridin-2-yloxy)-benzofuran-3-carbonyl]-piperidine-4-carboxylic acid amide]	22 nM	110 nM
c1ccc2oc(Oc3ccc4c(CN5CCCCC5)c[nH]c4c3)nc2c1 [Example 15, 2-(3-Piperidin-1-ylmethyl-1H-indol-6-yloxy)-benzooxazole]	13 nM	152 nM
O=C(O)CC1CCN(Cc2c[nH]c3cc(Oc4nc5ccccc5s4)ccc23)CC1 [Example 46, {1-[6-(Benzothiazol-2-yloxy)-1H-indol-3-ylmethyl]-piperidin-4-yl}-acetic acid]	15 nM	667 nM
CN(Cc1ccccc1)Cc1c[nH]c2cc(Oc3nc4ccccc4s3)ccc12 [Example 5, [6-(Benzothiazol-2-yloxy)-1H-indol-3-ylmethyl]-benzyl-methyl-amine]	54 nM	901 nM
FC1CCN(Cc2coc3cc(Oc4nc5ncccc5s4)ccc23)CC1 [Example 270, 2-[3-(4-Fluoro-piperidin-1-ylmethyl)-benzofuran-6-yloxy]-thiazolo[4,5-b]pyridine formate]	26 nM	100 nM
NC(=O)C1CCN(Cc2c[nH]c3cc(Oc4nc5ccccc5s4)cnc23)CC1 [Example 33, 1-[6-(Benzothiazol-2-yloxy)-1H-pyrrolo[3,2-b]pyridin-3-ylmethyl]-piperidine-4-carboxylic acid amide]	42 nM	1520 nM
OC1(c2ccc(Br)cc2)CCN(Cc2coc3cc(Oc4nc5ncccc5s4)ccc23)CC1 [Example 348, 4-(4-Bromo-phenyl)-1-[6-(thiazolo[4,5-b]pyridin-2-yloxy)-benzofuran-3-ylmethyl]-piperidin-4-ol]	67 nM	360 nM
CN(C)C1CCN(Cc2coc3cc(Oc4nc5ncccc5s4)ccc23)CC1 [Example 282, Dimethyl-{1-[6-(thiazolo[4,5-b]pyridin-2-yloxy)-benzofuran-3-ylmethyl]-piperidin-4-yl}-amine formate]	17 nM	72 nM
CN(Cc1cccnc1)Cc1coc2cc(Oc3nc4ncccc4s3)ccc12 [Example 178, Methyl-pyridin-3-ylmethyl-[6-(thiazolo[4,5-b]pyridin-2-yloxy)-benzofuran-3-ylmethyl]-amine]	20 nM	290 nM
c1ccc2sc(Oc3ccc4[nH]c(CN5CCCC5)cc4c3)nc2c1 [Example 66, 2-(2-Pyrrolidin-1-ylmethyl-1H-indol-5-yloxy)-benzothiazole]	30 nM	1130 nM
CC(=O)N[C@H]1C[C@H]2CC[C@@H](C1)N2Cc1cc2cc(Oc3nc4ncccc4s3)ccc2o1 [Example 87, meso-endo-N-{8-[5-(Thiazolo[4,5-b]pyridin-2-yloxy)-benzofuran-2-ylmethyl]-8-aza-bicyclo[3.2.1]oct-3-yl}-acetamide]	35 nM	77 nM

Now those with a lower IC50 [1], led by results:

IC50 [1]	IC50 [2]	Compound
11 nM	15 nM	CCCNCc1coc2cc(Oc3nc4ncccc4s3)ccc12 [Example 303, Propyl-[6-(thiazolo[4,5-b]pyridin-2-yloxy)-benzofuran-3-ylmethyl]-amine formate]
5 nM	79 nM	COC1CCN(Cc2coc3cc(Oc4nc5ncccc5s4)ccc23)CC1 [Example 271, 2-[3-(4-Methoxy-piperidin-1-ylmethyl)-benzofuran-6-yloxy]-thiazolo[4,5-b]pyridine formate]
8 nM	150 nM	OC1CCN(Cc2coc3cc(Oc4nc5ncccc5s4)ccc23)CC1 [Example 268, 1-[6-(Thiazolo[4,5-b]pyridin-2-yloxy)-benzofuran-3-ylmethyl]-piperidin-4-ol]
8 nM	16 nM	CC(=O)N[C@@H]1CCN(Cc2coc3cc(Oc4nc5ncccc5s4)ccc23)C1 [Example 324, (R)—N-{1-[6-(Thiazolo[4,5-b]pyridin-2-yloxy)-benzofuran-3-ylmethyl]-pyrrolidin-3-yl}-acetamide]
< 1 nM	27 nM	c1cnc2nc(Oc3ccc4c(CN5CCSCC5)c[nH]c4c3)sc2c1 [Example 42, 2-(3-Thiomorpholin-4-ylmethyl-1H-indol-6-yloxy)-thiazolo[4,5-b]pyridine]
3 nM	77 nM	O=C(C1CC1)N1CCN(Cc2coc3cc(Oc4nc5ncccc5s4)ccc23)CC1 [Example 276, Cyclopropyl-{4-[6-(thiazolo[4,5-b]pyridin-2-yloxy)-benzofuran-3-ylmethyl]-piperazin-1-yl}-methanone formate]
8 nM	310 nM	Clc1ccc2sc3c(c2c1)CCN(Cc1c[nH]c2cc(Oc4nc5ncccc5s4)ccc12)C3 [Example 37, 6-Chloro-2-[6-(thiazolo[4,5-b]pyridin-2-yloxy)-1H-indol-3-ylmethyl]-1,2,3,4-tetrahydro-benzo[4,5]thieno[2,3-c]pyridine formate]
9 nM	71 nM	CC(C)CN1CCN(Cc2coc3cc(Oc4nc5ncccc5s4)ccc23)CC1 [Example 308, 2-[3-(4-Isobutyl-piperazin-1-ylmethyl)-benzofuran-6-yloxy]-thiazolo[4,5-b]pyridine formate]
7 nM	188 nM	CN1CCN(C(=O)C2CCN(Cc3c[nH]c4cc(Oc5nc6ccccc6s5)ccc34)CC2)CC1 [Example 26, {1-[6-(Benzothiazol-2-yloxy)-1H-indol-3-ylmethyl]-piperidin-4-yl}-(4-methyl-piperazin-1-yl)-methanone]
2 nM	341 nM	O=C(C1CCN(Cc2c[nH]c3cc(Oc4nc5ccccc5s4)ccc23)CC1)N1CCCCC1 [Example 24, {1-[6-(Benzothiazol-2-yloxy)-1H-indol-3-ylmethyl]-piperidin-4-yl}-piperidin-1-yl-methanone]
10 nM	150 nM	O=C(c1coc2cc(Oc3nc4ncccc4s3)ccc12)N1CCN(C2CCCCC2)CC1 [Example 379, (4-Cyclohexyl-piperazin-1-yl)-[6-(thiazolo[4,5-b]pyridin-2-yloxy)-benzofuran-3-yl]-methanone]
5 nM	15 nM	O=C1CCCCN1C1CCN(Cc2coc3cc(Oc4nc5ncccc5s4)ccc23)CC1 [Example 272, 1′-[6-(Thiazolo[4,5-b]pyridin-2-yloxy)-benzofuran-3-ylmethyl]-[1,4′]bipiperidinyl-2-one formate]
11 nM	143 nM	O=C1CCCN1C1CCN(Cc2c[nH]c3cc(Oc4nc5ccccc5s4)ccc23)CC1 [Example 30, 1-{1-[6-(Benzothiazol-2-yloxy)-1H-indol-3-ylmethyl]-piperidin-4-yl}-pyrrolidin-2-one]
1 nM	55 nM	CC1CCN(Cc2coc3cc(Oc4nc5ncccc5s4)ccc23)CC1 [Example 286, 2-[3-(4-Methyl-piperidin-1-ylmethyl)-benzofuran-6-yloxy]-thiazolo[4,5-b]pyridine formate]
